Data published in publication doi:10.1101/2025.03.14.643303, “A genome-scale drug discovery pipeline uncovers new therapeutic targets and a unique p97 allosteric binding site in Schistosoma mansoni” (bioRxiv, 2025).
“Also recorded” adds a separate entry of the source. Read-outs that look alike come from different tables or passages of the source.

Assays:
[1] = biological target: S. mansoni p97 (Smp_018240) (Schistosoma mansoni, UniProt G4M0P7); assay: biochemical; details: for IC50: read-out: S. mansoni IC50
Protocol: E. coli BL21 (DE3) containing the desired plasmid were grown in LB medium containing […] kanamycin while shaking at 37 °C to an OD600 of 0.6–0.8. The temperature was reduced to 18°C and 0.8 mM isopropyl-beta-D-thiogalactopyranoside (IPTG) was added. The bacterial culture was harvested 16hr later by centrifugation. The resulting pellet was suspended in 60 mL lysis buffer/2L bacterial culture [20 mM Tris (pH 7.4), 300 mM NaCl, 5 mM MgCl2, 20 mM imidazole, 1% Triton X-100, 1 mg/mL lysozyme, 10% glycerol, 3 mM β-mercaptoethanol, 0.2 mM PMSF, and protease inhibitor tablet (Roche)]. […] The lysate was centrifuged at 40,000 × rpm for 35 min at 4°C. The resulting supernatant was incubated with Ni-NTA beads equilibrated to lysis buffer for 1 hr at 4°C before being loaded onto a gravity column. The bead bed was washed with wash buffer [20 mM Tris (pH 7.4), 500 mM NaCl, 5 mM MgCl2, 40 mM imidazole, 0.05% Triton X-100, 10% glycerol, 3 mM β-mercaptoethanol, 0.2 mM PMSF, 0.001 mg/mL Aprotinin, and 0.002 mg/mL Leupeptin], then eluted in the same buffer with 250 mM imidazole in wash buffer. Fractions containing p97 were concentrated using Pierce Protein Concentrators (100k MWCO) and loaded onto a gel-filtration column (Superdex 200PG) and eluted using SEC buffer [20 mM Tris (pH 7.4), 180 mM NaCl, 5 mM MgCl2, and 10% glycerol] at 0.5 mL/min flow rate on a BioRad NGC Chromatography System. Fractions corresponding to an apparent molecular weight of 500 – 600 kDa were collected and analyzed by 4–20% SDS/PAGE to evaluate purity. Concentration was determined using a BSA standard. Fractions containing purified protein were aliquoted, snap frozen in liquid nitrogen, and stored at −80 °C until use.
For manual ATP consumption assays, 1 μM p97 was incubated with 1% DMSO or inhibitor (1% DMSO final) in assay buffer [50 mM Tris (pH 7.5), 20 mM MgCl2, 1 mM EDTA, 0.5 mM tris(2-carboxyethyl)phosphine (TCEP)] for 5 minutes prior to the addition of 20 μM ATP in a 384-well plate for a total reaction volume of 10 μL, and a final concentration of 500nM enzyme and 10 μM ATP. The reaction was allowed to proceed for 50 minutes at room temperature before adding equivalent volume of Kinase-Glo Plus reagent (Promega), and a further incubation of 10 minutes in the dark.
IC50 values were calculated using GraphPad Prism.

H. sapiens p97 (P55072) = biological target: T1, H. sapiens p97 (P55072) (Homo sapiens, UniProt P55072); assay: p97 ATPase activity, ATP consumption assay (Kinase-Glo), IC50 / counter screen; format: biochemical
T1 construct: 6xHis (C); made in house; host or cells: E. coli BL21 (DE3)

[2] = tested on: S. mansoni vcp/p97 (Smp_018240); assay: High-throughput screening (HTS) assay, Kinase-Glo, 10 μM single concentration; format: biochemical, Schistosoma mansoni; details: for Screen Inhibition: 10 μM compound, normalized to CB-5083, Fig. 4A; for inhibition of S. mansoni p97 function in the screen: high-throughput screen
Text: Kinase-Glo (Promega, part K1214) was purchased from Promega. Microtiter plates (384 wells) were purchased from Perkin Elmer. All chemicals included in the UTSW library were sourced from commercial sources [ChemDiv (150,000 compounds), ChemBridge (125,500), ComGenex (22,000), Prestwick Chemical, (1,100) and TimTec (500)] or UT Southwestern chemists (https://www.utsouthwestern.edu/research/core-facilities/high-throughput-screening/libraries/). For initial screening, compounds were dispensed by Echo 555 robot for a final concentration of 10 μM (0.2% DMSO). Luminescence was read by EnVision multimode plate reader (Perkin-Elmer). Assay conditions were consistent between manual and high-throughput assays [10 μM ATP, 50 mM Tris (pH 7.5), 20 mM MgCl2, 1 mM EDTA, 0.5 mM tris(2-carboxyethyl)phosphine (TCEP)]. The plates were then incubated for 50 min at room temperature before addition of Kinase-Glo reagent and further incubation in the dark for 10 minutes before reading luminescence. […] Hit compounds were validated using a dose-response curve (19.8 μM, 9.92 μM, 4.96 μM, 3.72 μM, 2.48 μM, 1,24 μM, 0.619 μM, 0.342 μM, 0.256 μM, 0.171 μM, 0.0854 μM, 0.0427 μM, and 0 μM) in triplicate. Compounds were also subjected to a counter screen using a dose-response curve against the full-length human p97 enzyme to determine preliminary selectivity.

adult S. mansoni worms = assay: Treatment of adult S. mansoni worms in culture with inhibitors (attachment to tissue culture substrate, morphology; single 10 μM and dose-response EC50); format: cell-based, Schistosoma mansoni; details: for time to detachment of adult worms in culture / effect on adult worms: 10 μM; for EC50: Schistosoma mansoni, read-out: S. mansoni EC50; for effect on adult worms: benzoxazole propiolamide series, treated 72 hours, monitored until D5
Protocol: Adult S. mansoni (NMRI strain) (6–7 weeks post-infection) worms were harvested from infected female Swiss Webster mice by hepatic portal vein perfusion using 37°C DMEM (Mediatech, Manassas, VA), 8% Horse Serum, and heparin.
Roughly 5 adult worm pairs were placed in 3mL Basch medium in a 12-well culture vessel, and incubated at 37°C, 5% CO2 for the length of the experiment. Compound was administered at D0, D1, and D2, media and drug refreshed every 24 hr. Worms were then allowed to remain in culture until D5, where a final assessment of worm attachment to tissue culture substate was made by light microscopy. Observations on movement and morphology were also recorded. A negative control (0.1% DMSO) and positive control (PZQ; 10 μM in 0.1% DMSO) were included in each experiment, and each experiment was repeated in triplicate for validation. For compounds that caused complete detachment in replicate experiments, the treatment was expanded to three concentrations (10 μM, 5 μM, and 1 μM) following the same treatment schedule and controls as detailed above. […] Each titration experiment was performed in triplicate according to the treatment regimen described above, using DMSO and PZQ as appropriate controls. Morphologies and motility were assessed by light microscopy, and dose-response curves were calculated using the primary readout of parasite attachment to tissue culture substrate in GraphPad Prism. […]
[…] Values were calculated using Prism.

HepG2 cells = assay: HepG2 cytotoxicity assay (Cell Titer Glo 2.0); format: cell-based, human; details: Homo sapiens
Protocol: HepG2 cells (ATCC) were plated at 2500 cells/well in 50 μL/well, dispersing cells using a 25g needle to break up clumps prior to plating. Plates were incubated for 24hr at 37C, 5% CO2. Following 24hr, 50 μL media containing 0.6% DMSO was added to a set of wells on one plate. The plate and Cell Titer Glo 2.0 reagent were brought to RT. A T=0 read was taken by adding 40 μL reagent/well, rocking the plate at 100 rpm for 2 min, then reading luminescence ~10 min later. […] 50 μL 2x concentrated compound was added to wells containing cells in 50 μL 24 hr after plating. Concentrations were tested in triplicate at following values: 30, 10, 3.3, 1.1, 0.37, 0.12, and 0.04 μM. Plates were incubated for 72 hr at 37C, 5% CO2. Following equilibration to room temperature, 40 μL undiluted reagent was added to each well, the plate rocked at 100 rpm for 2 min and then read for luminescent signal ~10 min later.
Values are plotted in excel and the 50% point determined by interpolation. Values were revisualized in Prism.

[3] = Smp97, re-tested screen compounds, 100 μM-1 nM, Fig. 4A
[4] = Hsp97, re-tested screen compounds, 100 μM-1 nM, Fig. 4A
[5] = H. sapiens vs S. mansoni p97 IC50, Suppl. Fig. 11D

T1 sequence (P55072 whole entry): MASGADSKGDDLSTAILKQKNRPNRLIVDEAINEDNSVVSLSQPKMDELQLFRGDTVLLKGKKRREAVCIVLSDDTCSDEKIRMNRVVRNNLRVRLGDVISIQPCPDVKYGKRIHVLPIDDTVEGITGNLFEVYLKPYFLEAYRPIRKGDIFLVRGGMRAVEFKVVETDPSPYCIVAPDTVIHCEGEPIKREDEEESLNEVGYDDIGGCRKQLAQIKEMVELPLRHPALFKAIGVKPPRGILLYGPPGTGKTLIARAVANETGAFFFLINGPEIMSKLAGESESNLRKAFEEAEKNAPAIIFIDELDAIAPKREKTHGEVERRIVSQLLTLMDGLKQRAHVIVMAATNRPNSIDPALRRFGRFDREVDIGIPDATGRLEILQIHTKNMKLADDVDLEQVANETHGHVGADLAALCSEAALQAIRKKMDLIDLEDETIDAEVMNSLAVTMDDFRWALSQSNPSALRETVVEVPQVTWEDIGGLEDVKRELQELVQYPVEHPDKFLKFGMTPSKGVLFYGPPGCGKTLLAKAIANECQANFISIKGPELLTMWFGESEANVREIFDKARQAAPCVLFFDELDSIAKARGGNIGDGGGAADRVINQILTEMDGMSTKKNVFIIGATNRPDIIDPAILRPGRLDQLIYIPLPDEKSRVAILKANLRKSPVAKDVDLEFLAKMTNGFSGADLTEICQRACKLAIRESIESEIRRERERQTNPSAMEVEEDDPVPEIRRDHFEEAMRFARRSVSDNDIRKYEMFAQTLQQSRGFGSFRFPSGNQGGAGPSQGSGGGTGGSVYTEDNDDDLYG
Sequence of S. mansoni p97 (Smp_018240) (G4M0P7 entry or part of it): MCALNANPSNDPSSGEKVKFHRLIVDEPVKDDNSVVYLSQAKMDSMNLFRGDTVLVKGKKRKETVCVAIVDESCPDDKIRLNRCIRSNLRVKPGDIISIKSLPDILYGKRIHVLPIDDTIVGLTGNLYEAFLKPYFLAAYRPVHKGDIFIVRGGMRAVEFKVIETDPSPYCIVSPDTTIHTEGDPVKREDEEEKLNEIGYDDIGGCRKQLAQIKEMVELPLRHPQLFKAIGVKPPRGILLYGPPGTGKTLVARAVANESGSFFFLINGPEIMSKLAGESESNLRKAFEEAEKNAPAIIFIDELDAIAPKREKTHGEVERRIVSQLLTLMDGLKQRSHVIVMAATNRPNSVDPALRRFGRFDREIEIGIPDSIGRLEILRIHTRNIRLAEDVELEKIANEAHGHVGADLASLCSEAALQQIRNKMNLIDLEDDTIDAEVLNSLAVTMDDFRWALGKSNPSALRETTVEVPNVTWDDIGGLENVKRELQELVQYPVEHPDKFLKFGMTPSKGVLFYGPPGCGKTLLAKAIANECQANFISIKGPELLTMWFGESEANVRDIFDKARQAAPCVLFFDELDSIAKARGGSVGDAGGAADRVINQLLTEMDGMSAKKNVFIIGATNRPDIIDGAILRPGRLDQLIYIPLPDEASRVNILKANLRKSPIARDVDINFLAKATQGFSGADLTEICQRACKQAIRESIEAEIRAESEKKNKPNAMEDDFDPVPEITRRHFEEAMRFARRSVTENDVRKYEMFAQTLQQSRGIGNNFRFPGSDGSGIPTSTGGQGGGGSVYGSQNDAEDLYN

SMILES | IC50 [1, 3] | IC50 (H. sapiens p97 (P55072); [4]) | Screen Inhibition [2] | inhibition of S. mansoni p97 function in the screen [2] | IC50 ([1]; p97 enzyme, Suppl. Fig. 11D) | IC50 (H. sapiens p97 (P55072); p97 enzyme, Suppl. Fig. 11D) | EC50 (adult S. mansoni worms) | effect on adult worms (adult S. mansoni worms) | also measured
O=C(/C=C\c1ccccc1)Nc1ccc2oc(-c3ccccc3)nc2c1 [Compound 324, (Z)-3-phenyl-N-(2-phenylbenzo[d]oxazol-5-yl)acrylamide] | > 100 µM | > 100 µM | 1.1% | inactive | – | – | – | – | –
O=C(C#Cc1ccccc1)Nc1ccc2oc(-c3ccncc3)nc2c1 [Compound 242, 3-phenyl-N-(2-(pyridin-4-yl)benzo[d]oxazol-5-yl)propiolamide] | – | – | 47% | – | 1.4 ± 0.11 µM | 12 ± 0.31 µM | 9.9 µM | led to death in adult parasites; also recorded: ultimately leading to their death | Fold Selectivity [1, 5]: 8.6; time to detachment of adult worms in culture (adult S. mansoni worms): ≤ 48 h
O=C(C#Cc1ccccc1)Nc1ccc2oc(-c3ccccn3)nc2c1 [Compound 243, 3-phenyl-N-(2-(pyridin-2-yl)benzo[d]oxazol-5-yl)propiolamide] | 2.1 ± 0.75 µM | 20 ± 0.54 µM | 46% | – | 2.1 ± 0.75 µM | 20 ± 0.54 µM | – | led to death in adult parasites; also recorded: ultimately leading to their death | Fold Selectivity [1]: 9.5; IC50 ([1]; Sm p97, 100 μM – 1 nM, Suppl. Fig. 9C): 2.1 ± 0.75 µM; IC50 ([1]; recombinant parasite enzyme, 100 μM-1 nM, Fig. 4D): 2.1 ± 0.75 µM; IC50 (H. sapiens p97 (P55072); Hs p97, 100 μM – 1 nM, Suppl. Fig. 9C): 20 ± 0.54 µM; IC50 (H. sapiens p97 (P55072); recombinant human enzyme, 100 μM-1 nM, Fig. 4D): 20 ± 0.54 µM; time to detachment of adult worms in culture (adult S. mansoni worms): ≤ 48 h; EC50 (adult S. mansoni worms; adult parasites, fraction of worms attached, 72 hours of drug treatment, in culture until D5, 50 μM - 10 nM, Suppl. Fig. 9C): 3.5 µM; GI50 (HepG2 cells; HepG2, 72 h): 5.6 µM; IC50 (HepG2 cells; HepG2, 72 h): 9.6 µM; GI50 (HepG2 cells; HepG2, read-out: HepG2 GI50): 5.6 µM; IC50 (HepG2 cells; HepG2, read-out: HepG2 IC50): 9.6 µM
O=C(CCc1ccccc1)Nc1ccc2oc(-c3ccccn3)nc2c1 [Compound 326, 3-phenyl-N-(2-(pyridin-2-yl)benzo[d]oxazol-5-yl)propanamide] | > 100 µM | > 100 µM | 2.2% | inactive | – | – | – | – | –
O=C(C#Cc1ccccc1)Nc1ccc2oc(-c3ccccc3)nc2c1 [Compound 245, 3-phenyl-N-(2-phenylbenzo[d]oxazol-5-yl)propiolamide] | – | – | 36% | – | 3.8 ± 0.19 µM | > 100 µM | 12 µM | did cause detachment, it did not lead to parasite death | Fold Selectivity [1, 5]: > 30
O=C(C=Cc1ccccc1)Nc1ccc2oc(-c3ccccc3)nc2c1 [Compound 135, N-(2-phenylbenzo[d]oxazol-5-yl)cinnamamide] | > 100 µM | > 100 µM | 1.1% | inactive | – | – | – | – | –
O=C(C#Cc1ccccc1)Nc1ccc2oc(-c3cccnc3)nc2c1 [Compound 244, 3-phenyl-N-(2-(pyridin-3-yl)benzo[d]oxazol-5-yl)propiolamide] | – | – | 16% | – | > 100 µM | > 100 µM | 25 µM | did not have any adverse effects on worm health and survival | activity on the enzyme ([1]; schistosome p97): minimal activity on the enzyme
